Assay results from PubChem BioAssay AID624129 (Sanford-Burnham Center for Chemical Genomics, 2012).
Active and inactive are the calls of the source. How the calls were made is not given here.

Molecular target: C-X-C chemokine receptor type 6 (Homo sapiens) (UniProt O00574)
Experiment: CXCR6 receptor antagonists, dose response, cell-based, beta-arrestin, DiscoveRx, APJ panel, uHTS hits (AID 624129)
Conditions: CXCR6 beta-arrestin (DiscoveRx) antagonist cell assay; for outcome: CXCR6, dose range 1; for inhibition: CXCR6, run 2, dose range 1, at 79 µM (top of the series)
[1] = CXCR6, dose range 1, mean IC50 across replicates

C-X-C chemokine receptor type 6 (Homo sapiens), sequence (O00574 whole entry, looked up): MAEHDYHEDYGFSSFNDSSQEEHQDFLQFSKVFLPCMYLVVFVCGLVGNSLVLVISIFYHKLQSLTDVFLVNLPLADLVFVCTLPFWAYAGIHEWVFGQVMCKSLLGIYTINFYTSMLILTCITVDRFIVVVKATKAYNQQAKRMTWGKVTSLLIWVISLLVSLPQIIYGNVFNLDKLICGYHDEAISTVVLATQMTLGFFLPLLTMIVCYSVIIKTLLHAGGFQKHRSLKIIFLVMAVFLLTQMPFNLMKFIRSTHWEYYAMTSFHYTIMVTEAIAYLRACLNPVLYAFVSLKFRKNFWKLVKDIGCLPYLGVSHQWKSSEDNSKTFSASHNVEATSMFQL

Compound	outcome	IC50 [1]	IC50 (CXCR6, run 1, dose range 2)	inhibition	IC50 (CXCR6, run 2, dose range 2)
COc1cccc(C(=O)NC(=S)N2CCN(c3ccc(C(F)(F)F)cc3[N+](=O)[O-])CC2)c1	inactive	13.5 µM	13.1 µM	74.3%	14 µM
COc1ccc(C(=O)N/N=C/c2cccc3cccnc23)cc1	inactive	13.5 µM	12.6 µM	60.1%	14.5 µM
CCOC(=O)c1c(-c2ccc(C)o2)csc1NC(=S)NC(=O)N(C)C	inactive	13.6 µM	9.19 µM	99.3%	18 µM
CC1(C)CC[C@]2(C(=O)n3ccnc3)CC[C@]3(C)[C@H](C(=O)C=C4[C@@]5(C)C=C(C#N)C(=O)C(C)(C)[C@@H]5CC[C@]43C)[C@@H]2C1	inactive	16.4 µM	14.4 µM	105%	18.4 µM
O=C(C=Cc1ccccn1)c1ccccc1O	inactive	22.4 µM	13.8 µM	108%	31 µM
O=C1c2cccc3c([N+](=O)[O-])ccc(c23)C(=O)N1Cc1cccnc1	inactive	27.8 µM	25 µM	110%	30.5 µM
Cc1ccc(P(=O)(c2ccc(C)cc2)[C@@H](NC(c2ccccc2)c2ccccc2)c2ccccc2)cc1	inactive	19.6 µM	17 µM	82.4%	22.1 µM
O=[N+]([O-])c1ccc(N/N=C/c2sc(N3CCOCC3)nc2-c2ccccc2)c(S(=O)(=O)Nc2ccccc2Cl)c1	inactive	27.6 µM	27.6 µM	95.7%	> 79 µM
C/C(=N\Nc1nc2ccccc2[nH]1)c1ccccn1	active	3.33 µM	3.33 µM	-12.1%	> 79 µM
N#Cc1c([N+](=O)[O-])cc([N+](=O)[O-])cc1S(=O)(=O)Cc1ccccc1	inactive	11.8 µM	11.1 µM	114%	12.6 µM
Cc1cc(C)cc(N2C(=O)CC(Sc3nnnn3-c3ccccc3)C2=O)c1 (stereo not given)	inactive	14.5 µM	13.9 µM	113%	15.2 µM
Cc1ccc(NC(=O)c2nc(S(=O)(=O)Cc3ccccc3)ncc2Cl)cc1	inactive	15.3 µM	15.2 µM	111%	15.5 µM
COc1cc(/C=C2\SC(=O)N(c3ccc(Cl)cc3)C2=O)cc([N+](=O)[O-])c1O	inactive	20.6 µM	12.8 µM	88.6%	28.4 µM
CCOC(=O)CS(=O)(=O)c1nc(-c2ccccc2)cc(C(F)(F)F)n1	inactive	18.9 µM	17.7 µM	108%	20.2 µM
O=C1c2cccc3c([N+](=O)[O-])ccc(c23)C(=O)N1c1ccc(Cl)cn1	inactive	19.6 µM	17.7 µM	92.1%	21.6 µM
Cc1cc(O)ccc1NC(=S)NC(=O)c1cncc(Br)c1	inactive	16.3 µM	17.3 µM	68.1%	15.4 µM
COc1cc(N2C(=O)C=CC2=O)ccc1N1C(=O)C=CC1=O	inactive	15.8 µM	12.7 µM	112%	18.9 µM
CCN(CC)CCn1c(N)c(S(=O)(=O)c2ccccc2)c2nc3ccccc3nc21	inactive	15.9 µM	13.2 µM	99.2%	18.5 µM
CC(C)[C@H](NC(=O)OC(C)(C)C)c1nnc(S(=O)(=O)Cc2c(F)cccc2Cl)o1	inactive	13.3 µM	12.9 µM	111%	13.8 µM
Cc1ccc(CS(=O)(=O)c2ncc(Cl)c(C(=O)Nc3ccc(OC(F)F)cc3)n2)cc1	inactive	12.6 µM	12.6 µM	105%	> 79 µM
O=C(NCc1ccc2c(c1)OCO2)c1nc(S(=O)(=O)Cc2ccccc2F)ncc1Cl	inactive	16.3 µM	15.6 µM	111%	17 µM
COC(=O)c1cc([N+](=O)[O-])c(-n2cncn2)c([N+](=O)[O-])c1	inactive	16.2 µM	13.9 µM	113%	18.4 µM
COc1ccc(C(=O)NC(=S)Nc2ccc([N+](=O)[O-])cc2C)cc1OC	inactive	21.7 µM	18.3 µM	100%	25.1 µM
COc1cccc2sc(N(CCCN(C)C)C(=O)CCS(=O)(=O)c3ccccc3)nc12	inactive	14.7 µM	13.5 µM	111%	15.9 µM

Compound	outcome	IC50 [1]	IC50 (CXCR6, run 1, dose range 2)	inhibition	IC50 (CXCR6, run 2, dose range 2)
COC(=O)/C=C\C(=O)Nc1cccc([N+](=O)[O-])c1	inactive	16.6 µM	18 µM	111%	15.2 µM
CCCOc1ccc(CN(CCC#N)C(=S)NC(=O)c2ccccc2)cc1	inactive	20 µM	10.4 µM	68.9%	29.6 µM
O=C1C=CC(=O)N1CCNc1ncc(C(F)(F)F)cc1Cl	inactive	15.5 µM	15.7 µM	110%	15.2 µM
O=C1CC(Sc2nnnn2-c2ccccc2)C(=O)N1c1cccc(Cl)c1 (stereo not given)	inactive	11.9 µM	11.7 µM	112%	12.2 µM
CCC(=O)OCCNc1cc(SCCC(=O)OC)c2nonc2c1[N+](=O)[O-]	inactive	22.5 µM	21.5 µM	108%	23.5 µM
C[n+]1ccc(/C=N/Nc2nc(Cl)c(C#N)c(Cl)c2Cl)cc1	inactive	44.8 µM	23.6 µM	90.5%	66 µM
C=CCn1c(=O)c2c(nc3n2CC(C)CN3c2cccc(OC)c2)n(C)c1=O (stereo not given)	inactive	19.5 µM	18.3 µM	66.1%	20.7 µM
CCOc1ccc(Nc2ccc([N+](=O)[O-])c3nonc23)cc1	inactive	38.8 µM	33.7 µM	81.7%	43.9 µM
O=C(COc1ccc(Br)cc1Cl)NC(=S)N1CCc2ccccc21	inactive	17.3 µM	14.8 µM	94.9%	19.7 µM
COc1cc(/C=C(\C#N)c2nc3ccccc3o2)ccc1O	inactive	35.5 µM	28.8 µM	73.9%	42.1 µM
Cc1c(N=Nc2c(O)[nH]c(=S)[nH]c2=O)c(=O)n(-c2ccccc2)n1C	inactive	22.5 µM	16.4 µM	107%	28.6 µM
COc1ccc(CNC(=O)c2nc(S(=O)(=O)Cc3ccccc3)ncc2Cl)cc1	inactive	17.9 µM	15.1 µM	108%	20.7 µM
Cc1ccc(NC(=O)C2=C(c3ccccc3)S(=O)(=O)CCS2(=O)=O)cc1	inactive	16.9 µM	16.4 µM	108%	17.4 µM
Cc1ccc(C(=O)NNC(=S)NC(=O)c2ccccc2)cc1	inactive	20.1 µM	18 µM	84.4%	22.2 µM
Cc1cc(C)nc(S/C=C/C(=O)c2ccccc2)n1	inactive	25.1 µM	22.6 µM	107%	27.5 µM
O=[N+]([O-])c1cc2no[n+]([O-])c2cc1N1CCCCC1	inactive	12 µM	12.2 µM	112%	11.9 µM
CC(=O)N1N=C(c2cccs2)CC1c1cccc([N+](=O)[O-])c1 (stereo not given)	inactive	23.2 µM	20.8 µM	73.7%	25.5 µM
CCOC(=O)[C@]12Cc3cc(Cl)ccc3[C@H]1N(C1CCCCC1)C(=O)c1cc(OC)ccc12	inactive	17.8 µM	16.2 µM	113%	19.5 µM
Cc1cccc(NC(=S)NNc2ncc(C(F)(F)F)cc2Cl)c1	inactive	20.5 µM	26.4 µM	109%	14.7 µM
COc1ccc(NC(=S)NNc2ccc([N+](=O)[O-])cc2S(=O)(=O)Nc2ccc(C)cc2C)cc1	inactive	35.1 µM	> 79 µM	106%	35.1 µM
CC1=C(O)C(=O)C=C2C1=CC=C1C2(C)CCC2(C)C3CC(C)(C(=O)O)CCC3(C)CCC12C (stereo not given)	inactive	19.3 µM	16.7 µM	113%	21.9 µM
COc1cccc(/C=C2/CCC(CN(C)C)C2=O)c1 (stereo not given)	inactive	19.4 µM	20.6 µM	111%	18.2 µM
COC(=O)C1=C(C(=O)OC)SC2(S1)C(C(=O)OC)=C(C(=O)OC)Sc1c2ssc1=O	inactive	23.2 µM	20.3 µM	112%	26 µM
CC(Oc1cccc(Br)c1)C(=O)NNC(=O)c1ccccn1 (stereo not given)	inactive	14.4 µM	12 µM	105%	16.9 µM
